Assay [1] deals with patients with negative symptoms of schizophrenia. Kind of assay: Study #1 (MIN-101C03): Brief Negative Symptoms Scale (BNSS). The following applies: Week 12 DB, ITT. The class given is in vivo, human. An excerpt: As used herein, “BNSS” is the Brief Negative Symptom Scale. “BNSS” is 13-item instrument designed to measure negative symptoms, specifically: blunted affect, alogia, asociality, anhedonia, and avolition (Kirkpatrick, et al., “The Brief Negative Symptom Scale: Psychometric Properties,” Schizophr. Bull., 2011, 37(2), 300-5.).
(§1) Phase 2b Study #1 (also referred to herein as “MIN-101C03”) was a Phase 2b, double-blind (“DB”), placebo-controlled, randomized, multicenter 12-week study to evaluate the efficacy, safety, and tolerability of Roluperidone in patients ≥18 years to ≤60 years with negative symptoms of schizophrenia, followed by a 24-week open-label (“OL”) extension. The primary objective of the study was to evaluate the efficacy of Roluperidone compared to placebo in improving the negative symptoms of schizophrenia as measured by the change from Baseline in the PANSS negative factor score of the PSM (“PANSS PSM”) over 12 weeks of treatment.
(§2) The study consisted of a pretreatment screening period of up to 28 days (including washout), a 12-week, DB, placebo-controlled period, and a 24-week OL period. Eligible patients (who were symptomatically stable for at least 3 months and had scores of at least 20 on the PANSS negative subscale score) were randomized in a 1:1:1 ratio to receive oral Roluperidone (a modified-release, “MR”, formulation) 32 mg QD, Roluperidone 64 mg QD, or placebo for 12 weeks. […] During the 24-week, OL treatment extension period, patients who were initially randomized to Roluperidone 32 mg or 64 mg continued on the same dose, while patients who were initially randomized to placebo crossed over to Roluperidone 32 mg or 64 mg in a 1:1 ratio.

Assay [2] has the same test system. Kind of assay: Study #1 (MIN-101C03): CGI-S and CGI-I. The class given is in vivo, human. As to conditions: Week 12 DB, ITT. As for the experimental part:
The CGI-S is a clinician-rated scale that is designed to rate the severity of the patient's illness at the time of assessment, including knowledge of the patient's history, psychosocial circumstances, symptoms, behavior, and the impact of the symptoms on the patient's ability to function relative to the clinician's past experience with patients who have the same diagnosis and similar improvement with treatment. Considering total clinical experience, a patient is assessed on severity of mental illness at the time of rating, where 1=normal (not at all ill); 2=borderline mentally ill; 3=mildly ill; 4=moderately ill; 5=markedly ill; 6=severely ill; or 7=extremely ill.
The CGI-S and CGI-I were assessed at the timepoints described in Table 7. The CGI-S and CGI-I were exploratory endpoints in Studies MIN-101C03 and MIN-101C07.
as §1, §2

As for “1H-Isoindol-1-one,2-[ [1-[2-(4-fluorophenyl)-2-oxoethyl]-4-piperidinyl]methyl]-2,3-dihydro-, hydrochloride, hydrate (1:1:2) [Roluperidone]”, in assay [1] (32 mg QD), the “Change from Baseline LS Mean: Brief Negative Symptoms Scale Total Score” value is listed as −5.44 and the “Effect Size vs Placebo: Brief Negative Symptoms Scale Total Score” value worked out at 0.33. In assay [1] (64 mg QD), the “Change from Baseline LS Mean: Brief Negative Symptoms Scale Total Score” value is on record as −6.94 and the “Effect Size vs Placebo: Brief Negative Symptoms Scale Total Score” value is listed as 0.56. Further, in assay [2] (32 mg QD), the “Change from Baseline: Clinical Global Impression of Severity (observed change)” value is listed as −0.40, the “Effect Size vs Placebo: Clinical Global Impression of Improvement” value was 0.33 and the “Effect Size vs Placebo: Clinical Global Impression of Severity” value was 0.35. In addition, in assay [2] (64 mg QD), the “Change from Baseline: Clinical Global Impression of Severity (observed change)” value is listed as −0.40 (0.1), the “Effect Size vs Placebo: Clinical Global Impression of Improvement” value was 0.57 and the “Effect Size vs Placebo: Clinical Global Impression of Severity” value amounted to 0.43.

The values above are taken from patent publication US20230255953A1, “USE OF ROLUPERIDONE IN PREVENTING RELAPSE IN SCHIZOPHRENIA PATIENTS” (Minerva Neurosciences, Inc., priority 2022, published 2023).
